Assay results published in PMC7473865, “Repertoire-scale determination of class II MHC peptide binding via yeast display improves antigen prediction” (Nature Communications, 2020).
Ends that are not written are not given here. Peptide text beside a SMILES is read from it.

Target: T1, recombinant HLA-DR401 (HLA-DRA1*01:01, HLA-DRB1*04:01) (Homo sapiens, UniProt P01903+P01911, A100K/A169T/F76Y/I96L/K127E/L162R/M171V/N62H/P40V/Q125Y/R42H/S133A/S149N/S66Y/V115G/V209L/W38E)
T1 construct: poly-histidine (C); made in house; host or cells: High Five (Hi5) insect cells, baculovirus (pAcGP67a)
Assay: biochemical
Assay type: binding
Details: not given

Compound	IC50
AAWERENDMLGWEEG	15.2 nM
AAVADDFSCRGWEEG	47 nM
AAGVIDPTMLGWEEG	29.3 nM
AAWVPCGDMVSWEEG	26.5 nM
AAWDPERTCRAWEEG	31.8 nM
AAWHNDPACKGWEEG	40.7 nM
AAWVVEHSEVGWEEG	19.4 nM
AAANMDTSLPAWEEG	180 nM
AAWDPDKTVYGWEEG	43.9 nM
CC(C)C[C@H](NC(=O)[C@H](C)NC(=O)[C@H](C)N)C(=O)N[C@@H](CCCNC(=N)N)C(=O)N[C@@H](CCC(=O)O)C(=O)N[C@@H](CCC(=O)O)C(=O)N[C@@H](Cc1c[nH]cn1)C(=O)N[C@H](C(=O)N[C@@H](CS)C(=O)N[C@@H](CCCCN)C(=O)N[C@@H](CS)C(=O)N[C@@H](Cc1c[nH]c2ccccc12)C(=O)N[C@@H](CCC(=O)O)C(=O)N[C@@H](CCC(=O)O)C(=O)NCC(=O)O)[C@@H](C)O (H-AALREEHTCKCWEEG-OH)	36.9 nM
CC(C)C[C@H](NC(=O)[C@H](C)NC(=O)[C@H](C)N)C(=O)N[C@@H](CC(N)=O)C(=O)N[C@H](C(=O)N[C@@H](CCC(=O)O)C(=O)N[C@@H](CCCNC(=N)N)C(=O)N[C@H](C(=O)N[C@@H](CS)C(=O)N[C@@H](Cc1c[nH]cn1)C(=O)N[C@@H](CS)C(=O)N[C@@H](Cc1c[nH]c2ccccc12)C(=O)N[C@@H](CCC(=O)O)C(=O)N[C@@H](CCC(=O)O)C(=O)NCC(=O)O)[C@@H](C)O)C(C)C (H-AALNVERTCHCWEEG-OH)	33.4 nM
AGEYRNDPNNLAYNG	26.5 nM
AAERKMSVLSAWEEG	817 nM
CC(C)C[C@H](NC(=O)[C@H](C)NC(=O)[C@H](C)N)C(=O)N[C@H](C(=O)N[C@@H](CC(=O)O)C(=O)N[C@@H](CC(=O)O)C(=O)N1CCC[C@H]1C(=O)N[C@H](C(=O)N[C@@H](CS)C(=O)N[C@@H](CCCNC(=N)N)C(=O)N[C@@H](CS)C(=O)N[C@@H](Cc1c[nH]c2ccccc12)C(=O)N[C@@H](CCC(=O)O)C(=O)N[C@@H](CCC(=O)O)C(=O)NCC(=O)O)[C@@H](C)O)C(C)C (H-AALVDDPTCRCWEEG-OH)	29.3 nM
AAWESSTDLVGWEEG	11.9 nM
AAWHGEGSQIGWEEG	17.5 nM
CC(C)C[C@H](NC(=O)[C@H](C)NC(=O)[C@H](C)N)C(=O)N[C@@H](CO)C(=O)N[C@@H](CC(C)C)C(=O)N[C@@H](CCC(=O)O)C(=O)N[C@@H](CCCNC(=N)N)C(=O)N[C@@H](CO)C(=O)N[C@@H](CS)C(=O)N[C@@H](CCCCN)C(=O)N[C@@H](CS)C(=O)N[C@@H](Cc1c[nH]c2ccccc12)C(=O)N[C@@H](CCC(=O)O)C(=O)N[C@@H](CCC(=O)O)C(=O)NCC(=O)O (H-AALSLERSCKCWEEG-OH)	24.9 nM

Same assay, conditions: HLA-DR401; fluorescence polarization competition; Fig3B; read-out: Measured IC50

Compound	IC50
VSSFQDILLRMSKMQ	> 50000 nM
CSCC[C@H](NC(=O)[C@H](CO)NC(=O)[C@H](Cc1ccccc1)NC(=O)[C@H](CC(N)=O)NC(=O)[C@H](C)NC(=O)[C@@H](NC(=O)[C@H](Cc1ccccc1)NC(=O)CNC(=O)[C@H](Cc1ccc(O)cc1)NC(=O)[C@H](CCCNC(=N)N)NC(=O)[C@H](Cc1ccc(O)cc1)NC(=O)[C@H](Cc1ccccc1)NC(=O)[C@H](Cc1ccccc1)NC(=O)[C@@H](N)CO)C(C)C)C(=O)N[C@@H](CCC(=O)O)C(=O)O	> 50000 nM
CC(C)C[C@H](N)C(=O)N[C@@H](Cc1ccccc1)C(=O)N[C@@H](CCC(=O)O)C(=O)N[C@@H](CCCCN)C(=O)N[C@@H](Cc1ccccc1)C(=O)N[C@@H](Cc1ccccc1)C(=O)N1CCC[C@H]1C(=O)N[C@@H](CO)C(=O)N[C@@H](CO)C(=O)N[C@@H](CO)C(=O)N[C@@H](Cc1ccc(O)cc1)C(=O)N[C@@H](CCCNC(=N)N)C(=O)N[C@@H](CCCNC(=N)N)C(=O)N1CCC[C@H]1C(=O)N[C@H](C(=O)O)C(C)C	> 50000 nM

Same assay, conditions: SuppFig6C; fluorescence polarization competition, HLA-DR401; read-out: Measured IC50

Compound	IC50
AAEFRNEDGPLGEPG	79.9 nM
AAGFKGEQGPKGYPG	115 nM
AGGFKGEQGPKGYNG	134 nM

Same assay, conditions: estimated from two-point fluorescence polarization competition assay binding plots, HLA-DR401, N = 3 technical replicates per condition; read-out: IC50 (estimated)

Compound	IC50
AAWVRVVPMRAWEEG	< 10 nM
CC(C)C[C@H](NC(=O)CNC(=O)[C@H](CCCNC(=N)N)NC(=O)[C@H](CCC(=O)O)NC(=O)[C@H](CC(C)C)NC(=O)[C@@H](NC(=O)[C@H](Cc1c[nH]c2ccccc12)NC(=O)[C@H](C)NC(=O)[C@H](C)N)C(C)C)C(=O)N[C@@H](CS)C(=O)N[C@@H](CS)C(=O)N[C@@H](Cc1c[nH]c2ccccc12)C(=O)N[C@@H](CCC(=O)O)C(=O)N[C@@H](CCC(=O)O)C(=O)NCC(=O)O (H-AAWVLERGLCCWEEG-OH)	34 nM
AARYATSKSKGWEEG	9520 nM
AASFLSDSVMGWEEG	< 10 nM
AALGLDLRAYVWEEG	7000 nM
AAYSVEPCYRMWEEG	37 nM
AAVNDQLTVNSWEEG	4500 nM
AAFLGEWSLLSWEEG	< 10 nM

Same assay, conditions: fluorescence polarization competition; […]; competitor 20 µM to 1.28 nM in five-fold dilutions; n = 3 replicates; read-out: Measured IC50

Compound	IC50
YWKQWLSLRNPILVF	2510 nM

Same assay, conditions: fluorescence polarization peptide competition, HLA-DR401; sheet Fig7; read-out: Measured IC50

Compound	IC50
YVGDMLAWLHQSTASEKEHL	406 nM
AAGFPGEQGPKGEPG	> 50000 nM
VYGWATLVSERSKNGMQRIL	245 nM
MKRRPVWTDINPKAVTNDEL	21 nM
CC[C@H](C)[C@H](NC(=O)[C@H](C)NC(=O)[C@H](CC(=O)O)NC(=O)[C@H](Cc1ccc(O)cc1)NC(=O)[C@H](CC(C)C)NC(=O)[C@@H]1CCCN1C(=O)[C@@H](NC(=O)CNC(=O)[C@@H](N)CCC(=O)O)[C@@H](C)CC)C(=O)N[C@@H](CCCCN)C(=O)N[C@@H](CS)C(=O)N[C@@H](CCSC)C(=O)N[C@@H](CCCNC(=N)N)C(=O)N[C@H](C(=O)N[C@@H](Cc1ccccc1)C(=O)N[C@@H](Cc1ccccc1)C(=O)NCC(=O)N[C@@H](Cc1c[nH]c2ccccc12)C(=O)N[C@@H](CCCCN)C(=O)N[C@@H](CCC(=O)O)C(=O)O)[C@@H](C)O	61.4 nM
CC(C)C[C@H](NC(=O)[C@H](CCC(=O)O)NC(=O)[C@H](CC(N)=O)NC(=O)[C@H](CC(C)C)NC(=O)[C@H](CCC(N)=O)NC(=O)[C@@H](NC(=O)[C@H](CO)NC(=O)[C@H](CO)NC(=O)[C@H](CS)NC(=O)[C@H](CO)NC(=O)[C@H](CC(C)C)NC(=O)[C@H](CCCNC(=N)N)NC(=O)[C@H](Cc1ccccc1)NC(=O)[C@H](CC(C)C)NC(=O)[C@H](CCC(N)=O)NC(=O)[C@@H]1CCCN1C(=O)[C@H](CC(C)C)NC(=O)[C@H](CC(=O)O)NC(=O)[C@H](CS)NC(=O)[C@@H](N)Cc1ccc(O)cc1)[C@@H](C)O)C(=O)O (H-YCDLPQLFRLSCSSTQLNEL-OH)	39.3 nM
CC[C@H](C)[C@H](NC(=O)[C@H](CCCCN)NC(=O)[C@H](CO)NC(=O)[C@@H](NC(=O)CNC(=O)[C@H](CC(N)=O)NC(=O)[C@@H](NC(=O)[C@H](CCCNC(=N)N)NC(=O)[C@@H](NC(=O)[C@H](Cc1ccc(O)cc1)NC(=O)[C@H](CC(C)C)NC(=O)[C@H](Cc1ccccc1)NC(=O)[C@@H](N)CCSC)C(C)C)[C@@H](C)O)[C@@H](C)O)C(=O)N[C@@H](CCCCN)C(=O)N[C@@H](CCSC)C(=O)N[C@@H](CCCCN)C(=O)N[C@@H](Cc1c[nH]c2ccccc12)C(=O)NCC(=O)N[C@@H](CCSC)C(=O)N[C@@H](CCC(=O)O)C(=O)O	6100 nM
PIPVIFHRIATELSKTNDIN	42.1 nM
FVGNIAEDLCLDITKLSARG	86 nM
ASDSSYRNECPMAEKEDTQM	47.4 nM
LLPVKQSVVPLAKGTLITHC	307 nM
YSIEVLLVLDDSVVRFHGKE	> 50000 nM
VYGWATLVSERSNNGMQRIL	94 nM
WRAPSYILSPELTQRLFSAA	248 nM
PIPVIFHRIATELRKTNDIN	698 nM
ESSISDKNYWKTVSNAFSVI	24.7 nM
CC[C@H](C)[C@H](NC(=O)CNC(=O)[C@@H](NC(=O)[C@H](CCSC)NC(=O)CNC(=O)[C@H](CCSC)NC(=O)[C@@H](NC(=O)[C@H](CC(N)=O)NC(=O)[C@H](CC(=O)O)NC(=O)[C@@H](NC(=O)[C@@H]1CCCN1C(=O)[C@H](CCC(=O)O)NC(=O)[C@@H](NC(=O)CNC(=O)[C@H](Cc1c[nH]c2ccccc12)NC(=O)[C@H](CC(N)=O)NC(=O)[C@H](CCC(N)=O)NC(=O)[C@H](Cc1ccccc1)NC(=O)[C@@H](N)CC(C)C)C(C)C)[C@@H](C)CC)C(C)C)[C@@H](C)CC)C(=O)N[C@@H](CC(C)C)C(=O)O	2520 nM
EVKYCTFSKDRSKPIPGMTL	> 50000 nM
RKDLIVMLMDTDVNKQDKQK	3170 nM

Same assay, conditions: read-out: Measured IC50

Compound	IC50
AAGFPGEQGPKGEPG	> 50000 nM
AAFFGWEWGPDGEPG	5670 nM
CSCC[C@H](NC(=O)[C@H](CO)NC(=O)[C@@H](NC(=O)[C@H](Cc1ccccc1)NC(=O)[C@H](CC(N)=O)NC(=O)[C@@H](NC(=O)[C@@H](N)C(C)C)C(C)C)C(C)C)C(=O)N[C@@H](CCC(=O)O)C(=O)N[C@@H](Cc1ccccc1)C(=O)N[C@@H](CO)C(=O)N[C@@H](CC(C)C)C(=O)N[C@H](C(=O)N[C@@H](CC(=O)O)C(=O)N1CCC[C@H]1C(=O)N[C@@H](CCCNC(=N)N)C(=O)O)[C@@H](C)O	7970 nM
AIGFKGEQGPKGGVG	23300 nM
VSSFQDILLRMSKMQ	> 50000 nM
CSCC[C@H](NC(=O)[C@H](CO)NC(=O)[C@H](Cc1ccccc1)NC(=O)[C@H](CC(N)=O)NC(=O)[C@H](C)NC(=O)[C@@H](NC(=O)[C@H](Cc1ccccc1)NC(=O)CNC(=O)[C@H](Cc1ccc(O)cc1)NC(=O)[C@H](CCCNC(=N)N)NC(=O)[C@H](Cc1ccc(O)cc1)NC(=O)[C@H](Cc1ccccc1)NC(=O)[C@H](Cc1ccccc1)NC(=O)[C@@H](N)CO)C(C)C)C(=O)N[C@@H](CCC(=O)O)C(=O)O	> 50000 nM
CSCC[C@H](NC(=O)[C@H](CCCNC(=N)N)NC(=O)[C@@H](N)CO)C(=O)N[C@@H](CCC(N)=O)C(=O)N[C@@H](Cc1ccccc1)C(=O)N[C@@H](CO)C(=O)N[C@@H](CO)C(=O)N[C@@H](Cc1ccccc1)C(=O)N[C@H](C(=O)N[C@H](C(=O)N[C@@H](CC(N)=O)C(=O)N[C@H](C(=O)N[C@@H](CCCNC(=N)N)C(=O)NCC(=O)N[C@@H](CO)C(=O)O)C(C)C)C(C)C)[C@@H](C)O	3380 nM
YSIEVLLVLDDSVVRFHGKE	> 50000 nM
AAGFKGEQGPKGGPG	12100 nM
CC(C)C[C@H](N)C(=O)N[C@@H](Cc1ccccc1)C(=O)N[C@@H](CCC(=O)O)C(=O)N[C@@H](CCCCN)C(=O)N[C@@H](Cc1ccccc1)C(=O)N[C@@H](Cc1ccccc1)C(=O)N1CCC[C@H]1C(=O)N[C@@H](CO)C(=O)N[C@@H](CO)C(=O)N[C@@H](CO)C(=O)N[C@@H](Cc1ccc(O)cc1)C(=O)N[C@@H](CCCNC(=N)N)C(=O)N[C@@H](CCCNC(=N)N)C(=O)N1CCC[C@H]1C(=O)N[C@H](C(=O)O)C(C)C	> 50000 nM
EVKYCTFSKDRSKPIPGMTL	> 50000 nM
AAGFKGEQGPKGEPG	2910 nM
CSCC[C@H](NC(=O)[C@H](Cc1ccc(O)cc1)NC(=O)CNC(=O)[C@@H](N)CCCCN)C(=O)N[C@@H](Cc1ccccc1)C(=O)N[C@@H](CCC(=O)O)C(=O)N[C@@H](CO)C(=O)N[C@@H](CCCCN)C(=O)N[C@@H](CO)C(=O)N[C@@H](CCSC)C(=O)N[C@@H](CCCCN)C(=O)N[C@@H](CC(C)C)C(=O)N[C@@H](CCCNC(=N)N)C(=O)N[C@H](C(=O)N[C@@H](CCC(N)=O)C(=O)O)[C@@H](C)O	38700 nM
